According to patent US10092579B2, “Gold(I) complexes with anticancer properties and methods of use thereof” (KING FAHD UNIVERSITY OF PETROLEUM AND MINERALS, priority 2016, dated 2018):
Where two headings read alike, the source gives them in different places.

Tests used:
Assay type in all cases: cell-based, human
HCT15 cancer cell line = assay: MTT assay for anticancer activity, HCT15 cells; conditions: read-out: IC50 against HCT15
Protocol: (§1) A549, HeLa and HCT15 human cancer cells were seeded and maintained in triplicate at 4×10^3 cells/well in 100 μL DMEM (Dulbecco's Modified Eagle's Medium) containing 10% FBS (Fetal Bovine Serum) in 96-wells tissue culture plate and incubated for 72 h at 37° C. 5% CO2 in air and 90% relative humidity in CO2 incubator.
(§2) The resultant cultures were incubated for 24 h. The medium of wells was discarded. 100 μL DMEM containing MTT (3-(4,5-Dimethylthiazol-2-Yl)-2,5-Diphenyltetrazolium Bromide) (5 mg/mL) was added to the wells and incubated in CO2 incubator at 37° C. in dark for 4 h. After incubation, a purple colored formazan (artificial chromogenic dye, product of the reduction of water insoluble tetrazolium salts e.g., MMT by dehydrogenases and reductases) in the cells is produced and appeared as dark crystals in the bottom of the wells. The medium of culture was discarded from each well carefully to avoid disruption of monolayer. 100 μL of Dimethylsulphoxide (DMSO) was added in each well. The solution was thoroughly mixed in the wells to dissolve the formazan crystals which ultimately result into a purple solution. The absorbance of the 96-wells plate was taken at 570 nm with Lab systems Multiskan EX-Enzyme-linked immunosorbent assay (EX-ELISA) reader against a reagent blank. All data presented are mean±standard error of the mean (SEM).

A549 cancer cell line = assay: MTT assay for anticancer activity, A549 cells; conditions: read-out: IC50 against A549
Protocol: as §1, §2

HeLa cancer cell line = assay: MTT assay for anticancer activity, HeLa cells; conditions: read-out: IC50 against HeLa
Protocol: as §1, §2

[1] = HCT15 cells, MTT, 24 h incubation
[2] = A549 cells, MTT, 24 h incubation
[3] = HeLa cells, MTT, 24 h incubation

| Compound | IC50 (HCT15 cancer cell line; [1]) [µM] | IC50 (A549 cancer cell line; [2]) [µM] | IC50 (HeLa cancer cell line; [3]) [µM] | IC50 (HCT15 cancer cell line) [µM] | IC50 (A549 cancer cell line) [µM] | IC50 (HeLa cancer cell line) [µM] |
| --- | --- | --- | --- | --- | --- | --- |
| [Cl][Au].[Cl][Au].c1ccc(P(CP(c2ccccc2)c2ccccc2)c2ccccc2)cc1 [[(DPPM)(AuCl)2](A0), [μ-Bis(diphenylphosphino)methane]dichlorodigold(I)] | 148 | 137 | 108 |  |  |  |
| N.N.[Cl][Pt][Cl] [cisplatin] | 29.5 | 41.6 | 19.4 |  |  |  |
| tri-tert-butyl-phosphine gold(I) dibenzyldithiocarbamate [Complex (A1)] |  |  |  | 93.2 | 96.9 | 25.6 |
